Here are results for 29 molecules from patent EP3789378A1, “PIPERIDINES OR PIPERIDONES SUBSTITUTED WITH UREA AND HETEROARYL” (Grünenthal GmbH, priority 2019, dated 2021).

The structures appear in SMILES notation. Counter-ions that a name gives are not always drawn.

The target in this assay is T1, h FPR2 (Homo sapiens, UniProt P25090).
T1 construct: expressed in transfected cells
T1 sequence (P25090 1-351): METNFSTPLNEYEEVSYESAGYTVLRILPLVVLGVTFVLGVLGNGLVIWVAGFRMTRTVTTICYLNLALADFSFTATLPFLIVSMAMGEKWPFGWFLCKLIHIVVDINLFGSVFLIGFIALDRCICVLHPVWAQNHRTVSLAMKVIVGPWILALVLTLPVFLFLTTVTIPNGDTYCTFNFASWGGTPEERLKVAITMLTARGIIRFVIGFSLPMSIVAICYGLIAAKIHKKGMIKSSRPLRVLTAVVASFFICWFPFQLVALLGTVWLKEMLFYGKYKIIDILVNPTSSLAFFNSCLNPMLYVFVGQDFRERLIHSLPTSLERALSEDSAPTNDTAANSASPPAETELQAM
Nature of the assay: Agonistic activity in hFPR2-Aq-CHO cells (FLIPR Calcium 5 fluorescence assay). The class given is cell-based. As to conditions: 11 point half log dilution, final assay concentration from 10µM. The procedure, abridged: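 hFPR2-Aq-CHO cells were loaded with Calcium 5 dye for 30 min at 37 °C and equilibrated 10 min at room temperature. Compound (11 points, 10 µM to 100 pM final) was added in HBSS/HEPES/probenecid buffer pH 7.4. Fluorescence rise over basal across 5 min, relative to no-compound wells, gave EC50.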
Broadly, the EC50 is the concentration that produces a half-maximal response. On to `COc1ccc([C@@H]2CN(C(=O)C3CCN(C)CC3)CC[C@H]2NC(=O)Nc2ccccc2)nc1` (relative stereo) [Ex-156, trans-1-[3-(5-Methoxy-pyridin-2-yl)-1-(1-methyl-piperidine-4-carbonyl)-piperidin-4-yl]-3-phenyl-urea], for which the EC50 is 58 nM. To `COc1cnc([C@@H]2CN(CC3CCC(OC)CC3)CC[C@H]2NC(=O)Nc2ccc(Cl)cc2)c(F)c1` (relative stereo) [Ex-223, trans-1-(4-Chloro-phenyl)-3-[3-fluoro-5-methoxy-1'-(4-methoxy-cyclohexylmethyl)-1',2',3',4',5',6'-hexahydro-[2,3']bipyridinyl-4'-yl]-urea] belongs 0.8 nM; to `COc1ccc([C@@H]2CN(CC(C)(C)O)CC[C@H]2NC(=O)Nc2cc(C)ns2)nc1` (relative stereo) [Ex-121, trans-1-[1-(2-Hydroxy-2-methyl-propyl)-3-(5-methoxy-pyridin-2-yl)-piperidin-4-yl]-3-(3-methyl-isothiazol-5-yl)-urea], 1.2 nM; to `COc1ccc([C@@H]2CN(CCN(C)C)CC[C@H]2NC(=O)Nc2ccc(Cl)cc2)nc1` (relative stereo) [Ex-136, trans-1-(4-Chlorophenyl)-3-[1-[2-(dimethylamino)ethyl]-3-(5-methoxy-pyridin-2-yl)-piperidin-4-yl]-urea], 1.4 nM. For the molecule `COc1ccc([C@@H]2CN(C(=O)c3ccc(C(F)(F)F)nc3)CC[C@H]2NC(=O)Nc2ccc(Cl)cc2)nc1` (single isomer, unassigned) [Ex-101, trans-1-(4-chlorophenyl)-3-[(5-methoxypyridin-2-yl)-1-{[6-(trifluoromethyl)pyridin-3-yl]carbonyl}piperidin-4-yl]urea], the EC50 turned out to be 0.11 nM. Take `CNCCC(=O)N1CC[C@@H](NC(=O)Nc2ccc(Cl)cc2)[C@H](c2ccc(OC)cn2)C1` (relative stereo) [Ex-97, trans-1-(4-chloro-phenyl)-3-[5-methoxy-1'-(3-methylamino-propionyl)-1',2',3',4',5',6'-hexahydro-[2,3']bipyridinyl-4'-yl]-urea]: the EC50 was 4 nM.

Consider `COc1ccc([C@@H]2CN(C(=O)C3CCN(C)CC3)CC[C@H]2NC(=O)Nc2ccc(Cl)cc2)nc1` (racemic) [Ex-89, trans-1-(4-chloro-phenyl)-3-[5-methoxy-1'-(1-methyl-piperidine-4-carbonyl)-1',2',3',4',5',6'-hexahydro-[2,3']bipyridinyl-4'-yl]-urea], for which the EC50 came out at 2 nM. To `COc1ccc([C@@H]2CN(CC3CCOCC3)CC[C@H]2NC(=O)Nc2ccc(Cl)cc2)nc1` (single isomer, unassigned) [Ex-51, trans-1-(4-chlorophenyl)-3-[3-(5-methoxypyridin-2-yl)-1-(oxan-4-ylmethyl)piperidin-4-yl]urea] belongs 0.4 nM; to `COc1ccc([C@@H]2CN(CC3(O)CC3)CC[C@H]2NC(=O)Nc2ccc(Cl)cc2)nc1` (relative stereo) [Ex-163, trans-1-(4-Chlorophenyl)-3-[1-[(1-hydroxy-cyclopropyl)-methyl]-3-(5-methoxy-pyridin-2-yl)-piperidin-4-yl]-urea], 0.8 nM; to `CNC(=O)CN1CC[C@H](NC(=O)Nc2ccc(Cl)cc2)[C@@H](c2ccc(OC)cn2)C1` [Ex-215], 0.3 nM. Take `COC1CCC(CN2CC[C@@H](NC(=O)Nc3ccc(Cl)cc3)[C@H](c3ccc(Cl)s3)C2)CC1` (relative stereo) [Ex-116, trans-1-(4-chloro-phenyl)-3-[3-(5-chloro-thiophen-2-yl)-1-(4-methoxy-cyclohexylmethyl)-piperidin-4-yl]-urea]: the EC50 came to 9 nM. To `Cc1cc(NC(=O)N[C@@H]2CCN(Cc3cc(C)on3)C[C@H]2c2ccc(Cl)s2)sn1` (single isomer, unassigned) [Ex-49, trans-1-[3-(5-chlorothiophen-2-yl)-1-[(5-methyl-1,2-oxazol-3-yl)methyl]piperidin-4-yl]-3-(3-methyl-1,2-thiazol-5-yl)urea] belongs 0.3 nM. Turning to `COc1ccc([C@@H]2CN(Cc3ccn(S(C)(=O)=O)n3)CC[C@H]2NC(=O)Nc2ccc(Cl)cc2)nc1` (single isomer, unassigned) [Ex-42, trans-1-(4-chlorophenyl)-3-[1-[(1-methanesulfonyl-1H-pyrazol-3-yl)methyl]-3-(5-methoxypyridin-2-yl)piperidin-4-yl]urea], the EC50 worked out at 1 nM.

For the molecule `CNCCC(=O)N1CC[C@@H](NC(=O)Nc2cc(C)ns2)[C@H](c2ccc(OC)cn2)C1` (relative stereo) [Ex-135, trans-1-[3-(5-Methoxy-pyridin-2-yl)-1-(3-methylamino-propanoyl)-piperidin-4-yl]-3-(3-methyl-isothiazol-5-yl)-urea], the EC50 was 17 nM. The value for `COc1ccc([C@H]2CN(C(C)(C)C(N)=O)CC[C@@H]2NC(=O)Nc2ccc(Cl)cc2)nc1` [Ex-225] was 8 nM.

In the case of `Cc1cc(NC(=O)N[C@@H]2CCN(Cc3ncccn3)C[C@H]2c2ccc(Cl)s2)sn1` (single isomer, unassigned) [Ex-62, trans-1-[3-(5-chlorothiophen-2-yl)-1-(pyrimidin-2-ylmethyl)piperidin-4-yl]-3-(3-methyl-1,2-thiazol-5-yl)urea], the EC50 turned out to be 0.2 nM.

On to `COc1ccc([C@@H]2CN(Cc3cncc(C)c3)CC[C@H]2NC(=O)Nc2ccc(Cl)cc2)nc1` (relative stereo) [Ex-64, trans-1-(4-chlorophenyl)-3-(3-(5-methoxypyridin-2-yl)-1-((5-methylpyridin-3-yl)methyl)piperidin-4-yl)urea], for which the EC50 is 0.06 nM. Regarding `Cc1cc(NC(=O)N[C@@H]2CCN(c3cnccn3)C[C@H]2c2ccc(Cl)cn2)sn1` (relative stereo) [Ex-19, trans-1-(5-chloro-1'-pyrazin-2-yl-1',2',3',4',5',6'-hexahydro-[2,3']bipyridinyl-4'-yl)-3-(3-methyl-isothiazol-5-yl)-urea], the EC50 amounted to 0.8 nM. In the case of `COc1ccc([C@@H]2CN(CC(F)F)CC[C@H]2NC(=O)Nc2ccc(Cl)cc2)nc1` (single isomer, unassigned) [Ex-35, trans-1-(4-chlorophenyl)-3-[1-(2,2-difluoroethyl)-3-(5-methoxypyridin-2-yl)piperidin-4-yl]urea], the EC50 was 0.06 nM. To `COc1cnc([C@@H]2CN(CCS(C)(=O)=O)CC[C@H]2NC(=O)Nc2ccc(Cl)cc2)c(F)c1` (relative stereo) [Ex-196, trans-1-(4-chloro-phenyl)-3-[3-fluoro-1'-(2-methanesulfonyl-ethyl)-5-methoxy-1',2',3',4',5',6'-hexahydro-[2,3']bipyridinyl-4'-yl]-urea] belongs 0.7 nM; to `COc1ccc([C@@H]2CN(Cc3cnc(C)nc3)CC[C@H]2NC(=O)Nc2ccc(Cl)cc2)nc1` (relative stereo) [Ex-61, trans-1-(4-chlorophenyl)-3-[3-(5-methoxy-2-pyridyl)-1-[(2-methylpyrimidin-5-yl)methyl]-4-piperidyl]urea], 0.6 nM; to `COc1ccc([C@@H]2CN(CC3CC3)CC[C@H]2NC(=O)Nc2ccc(Cl)cc2)nc1` (single isomer, unassigned) [Ex-172, trans-1-(4-Chlorophenyl)-3-[1-(cyclopropyl-methyl)-3-(5-methoxy-pyridin-2-yl)-piperidin-4-yl]-urea], 0.18 nM. To `COc1ccc([C@H]2CN(CC3(C(N)=O)CC3)CC[C@@H]2NC(=O)Nc2ccc(Cl)cc2)nc1` [Ex-143, trans-1-[[4-[[(4-Chlorophenyl)-carbamoyl]amino]-3-(5-methoxy-pyridin-2-yl)-piperidin-1-yl]-methyl]-cyclopropane-1-carboxyfic acid amide] belongs 0.12 nM. `CNCCN1CC[C@@H](NC(=O)Nc2ccc(Cl)cc2)[C@H](c2ccc(OC)cn2)C1` (relative stereo) [Ex-117, trans-1-(4-Chlorophenyl)-3-[3-(5-methoxy-pyridin-2-yl)-1-(2-methylamino-ethyl)-piperidin-4-yl]-urea]: the EC50 came out at 3 nM. To `O=C(Nc1ccc(Cl)cc1)N[C@@H]1CCN(CC2CCNCC2)C[C@H]1c1ccc(Cl)s1` (single isomer, unassigned) [Ex-83, trans-1-(4-chlorophenyl)-3-[3-(5-chlorothiophen-2-yl)-1-(piperidin-4-ylmethyl)piperidin-4-yl]urea dihydrochloride] belongs 0.2 nM. With `COc1ccc([C@@H]2CN(Cc3cncc(Cl)c3)CC[C@H]2NC(=O)Nc2ccc(Cl)cc2)nc1` (relative stereo) [Ex-69, trans-1-(4-chlorophenyl)-3-[1-[(5-chloropyridin-3-yl)methyl]-3-(5-methoxypyridin-2-yl)piperidin-4-yl]urea], the EC50 amounted to 0.07 nM. The value for `COc1ccc([C@@H]2CNCC[C@H]2NC(=O)Nc2ccc(Cl)cc2)nc1` (relative stereo) [Ex-112, trans-1-(4-chlorophenyl)-3-[3-(5-methoxypyridin-2-yl)piperidin-4-yl]urea] was 1.2 nM. To `O=C(Nc1ccc(Cl)cc1)N[C@@H]1CCN(CC2CCOCC2)C[C@H]1c1ccc(Cl)s1` (single isomer, unassigned) [Ex-85, trans-1-(4-chlorophenyl)-3-(3-(5-chlorothiophen-2-yl)-1-((tetrahydro-2H-pyran-4-yl)methyl)piperidin-4-yl)urea] belongs 14 nM; to `CNCCCN1CC[C@@H](NC(=O)Nc2ccc(Cl)cc2)[C@H](c2ccc(OC)cn2)C1` (relative stereo) [Ex-137, trans-1-(4-Chlorophenyl)-3-[3-(5-methoxy-pyridin-2-yl)-1-(3-methylamino-propyl)-piperidin-4-yl]-urea], 0.2 nM.
